In patent publication US10550094B2, “Compounds having antioxidant activity against free radicals and anti-inflammatory activity, and corresponding pharmaceutical or cosmetic compositions for skin care” (GIULIANI S.P.A., priority 2015, dated 2020):

Key:
[1] = system: TNF-α; experiment: Anti-inflammatory activity: TNF-α gene expression by qRT-PCR in LPS-treated keratinocytes; type: cell-based, human; settings: for TNF-α (relative gene expression): 10 μg/ml LPS, NCTC 2544; for Comparison vs LFS (%): TNF-α vs Control + LPS
Description: (§1) The immortalized line of human keratinocytes NCTC2544 is used (Perry V. P. et al., 1957), cultured in sterile flasks ([…]), incubated at 37° C. in a humid atmosphere at 5% CO2 in RPMI culture medium added with bovine fetal serum (FBS), 2 mm glutamine, 1% non-essential amino acids, in the presence of 1% penicillin and streptomycin. The 1:3 split is done every 2 days upon achieving the monolayer by washing with 1×PBS (phosphate buffer without Ca^2+ and Mg^2+) and detachment of cells with a trypsin-EDTA solution at 37° C. for 2 minutes. The cells were kept in culture in 25 cm^3 sterile flasks and incubated at 37° C. in a humid atmosphere at 5% CO2.
(§2) Negative control: untreated cells in RPMI medium added to 2.5% fetal bovine serum (FBS), 1% non-essential amino acids (NEAA), 1% of a penicillin and streptomycin mixture (Pen-Strep Mix), and kept in (12 well) 25 cm^2 culture plates at 37° C. and 5% CO2.
(§3) Positive control: cells in RPMI medium added to 2.5% fetal bovine serum (FBS), 1% non-essential amino acids (NEAA), 1% of a penicillin and streptomycin mixture (Pen-Strep Mix) and 10 μg/mL LPS (lipopolysaccharide) and kept in ([…]) 25 cm^2 culture plates at 37° C. and 5% CO2 (in the dark).
Study of the Anti-inflammatory Activity-NCTC 2544
The gene expression of the TNF-α inflammation marker was evaluated by relative quantitative RT-PCR (quantitative reverse transcription-polymerase chain reaction-qRT-PCR).
(§4) This assay involved three sequential steps: • extraction of total RNA; • retrotranscription in cDNA; • qRT-PCR.
Human keratinocytes NCTC 2544 were seeded in 12-well plates at the density of […] cells/well and incubated until reaching about 80% confluence.
Then, the cells were incubated for 16 and 24 hours with the compounds of the invention to be tested and the respective controls at the following concentrations: 13.5 μM and 27 μM, and admixed (in the well) with 10 μg/ml LPS.
(§5) The dilutions were prepared starting from 1000× stock in DMSO, sterile-filtered and using RPMI medium added to 2.5% fetal bovine serum (FBS), 1% non-essential amino acids (NEAA), 1% of a penicillin and streptomycin mixture (Pen-Strep Mix).
(§6) Cells kept in the culture medium alone (RPMI 2.5% FBS) were used as a negative control.
(§7) Cells in the culture medium alone (RPMI 2.5% FBS) and treated only with 10 μg/mL LPS were used as a positive control.
(§8) After incubation, the RNA was extracted. Total RNA was extracted from NCTC 2544 cells using the commercial kit Ribospin™ (GeneAllBiotechnology Co., LTD).
At the end of incubation with the active compounds of the invention, cells were washed with PBS (1×) and finally subjected to RNA extraction procedure. At the end of the extraction, using a spectrophotometer (Jenway UV/VIS MOD: 6715, BS-6715B0), concentrations were calculated in μg/mL of total RNA extracted at a wavelength of 260 nm.
For RT-PCR amplification, the TaqMan® probe (AppliedBiosystems) method was used. The following TYaqMan probe was used: Hs00174128_m1 (TNF-α). GAPDH: Hs99999905_m1 was used as control gene (housekeeping).
The data obtained were analyzed according to the method of 2-ΔΔCt and so it was possible to calculate the relative values of expression of the gene of interest, normalized compared to the housekeeping gene and calibrated on the control sample (untreated cells): ΔCt=ΔCttarget-housekeeping (control)−ΔCttarget-housekeeping (treated cells)
(§9) The 2^−ΔΔCt was calculated assuming an amplification efficiency of 100%.

[2] = system: fillagrin (FLG); experiment: Skin barrier function protection: filaggrin (FLG) gene expression by qRT-PCR in LPS-treated keratinocytes; type: cell-based, human; settings: 13.5 μM, with LPS, Control + LPS = 1.000
Description: as §1, §2, §3
Study of the Skin Barrier Function Protection
The gene expression of the involucrin (IVL) and fillagrin (FLG) markers was evaluated by relative quantitative RT-PCR (quantitative reverse transcription-polymerase chain reaction-qRT-PCR).
as §4
Human keratinocytes NCTC2544 were seeded in 12-well plates at the density of 0.5*10^6 cells/well and incubated until reaching about 80% confluence.
Then, the cells were incubated for 16 and 24 hours with the active compounds to be tested and the respective controls at the following concentrations: 13.5 and 27 μM, and admixed (in the well) with 10 μg/ml LPS.
as §5, §6, §7, §8
For RT-PCR amplification, the TaqMan® probe (AppliedBiosystems) method was used. The following TYaqMan probe was used: Hs00846307_s1 (IVL) and Hs00863478_g1 (FLG).
GAPDH: Hs99999905_m1 was used as control gene (housekeeping).
The data obtained were analyzed according to the method of 2-ΔΔCt and so it was possible to calculate the relative values of expression of the gene of interest, normalized compared to the housekeeping gene and calibrated on the control sample (untreated cells): ΔΔCt=ΔCttarget-housekeeping (control)−ΔCttarget-housekeeping (treated cells)
as §9

[3] = HORAC Hydroxyl radical antioxidant capacity assay
Source text: HORAC Assay: Hydroxyl Antioxidant Capacity In Vitro
The commercial kit “Oxiselect Hydroxyl Radical Antioxidant Capacity (HORAC) activity assay” (Cell Biolabs).
The HORAC assay esxpresses the compound antiradical capacity towards the hydroxyl radical OH′ and is based on the oxidation of a fluorescent probe by hydroxyl radicals through a hydrogen transfer process (HAT). Hydroxyl radicals are produced by a radical initiator hydroxyl and by Fenton's reagent, which quenches the fluorescent probe over time. The antioxidants present in the sample block the oxidation by the hydroxyl radical of the fluorescent probe until the antioxidant activity in the sample runs out. The remaining hydroxyl radicals destroy the fluorescence of the fluorescent probe. The antioxidant capacity of the sample is related to the fluorescence decay curve, which usually is represented as the area under the curve (AUC). The AUC is used to quantify the total antioxidant activity of the hydroxyl radical in a sample and is compared to the curve of an antioxidant standard.
The compounds of the invention were tested at the following concentrations: 13.5 μM; 27 μM, 13.5 mM; 27 mM.
For comparison purposes, also samples of the compound monofurfurylidene-2.4-sorbitol defined below by the acronym ARGB11, were in this case tested under the same two concentrations, as a reference compound according to EP0345362 mentioned above as the background art of substances with free radical inhibition activity.

[4] = higher dosages (13.5 μM and 27 μM)
[5] = lower concentrations 13.5 μM and 27 μM

| SMILES | TNF-α (relative gene expression) ([1]; 13.5 μM, 16 h) | Comparison vs LFS (%) ([1]; 13.5 μM, 16 h) | TNF-α (relative gene expression) ([1]; 13.5 μM, 24 h) | Comparison vs LFS (%) ([1]; 13.5 μM, 24 h) | TNF-α (relative gene expression) ([1]; 27 μM, 16 h) | Comparison vs LFS (%) ([1]; 27 μM, 16 h) | TNF-α (relative gene expression) ([1]; 27 μM, 24 h) | Comparison vs LFS (%) ([1]; 27 μM, 24 h) | anti-inflammatory activity (TNF-α), assessment in words ([1]; lower dose) | (FLG) 16 h RQ ± SEM [2] | HORAC (Hydroxyl Radical Antioxidant Capacity) ([3]; 13.5 μM) [μMole GAE/L] | HORAC (Hydroxyl Radical Antioxidant Capacity) ([3]; 27 μM) [μMole GAE/L] | HORAC (Hydroxyl Radical Antioxidant Capacity) ([3]; 13.5 mM) [μMole GAE/L] | HORAC (Hydroxyl Radical Antioxidant Capacity) ([3]; 27 mM) [μMole GAE/L] | HORAC activity compared with reference ARGB11 [3, 4] | HORAC activity compared with reference ARGB11 [3, 5] | anti-inflammatory activity (TNF-α), assessment in words ([1]; higher dose) |
| --- | --- | --- | --- | --- | --- | --- | --- | --- | --- | --- | --- | --- | --- | --- | --- | --- | --- |
| OCC1OC(c2ccco2)OC(CO)C1O (stereo not drawn) [Xylitil furfural, xylitil furfural] | 0.03 | 98.96 | 0.03 | 99.85 | 0.18 | 94.37 | 0.18 | 99.10 | remarkable | 64.669 ± 6.930 | 418.69 | 524.692 | 897.479 | 1242.582 | higher activity than the selected reference ARGB11 | higher than the selected reference ARGB11 | – |
| OCC(O)C1OC(c2ccccc2)OC(CO)C1O (stereo not drawn) [Sorbityl benzal, sorbityl benzal] | 0.39 | 87.93 | 0.71 | 96.50 | 0.08 | 97.62 | 0.01 | 99.97 | – | 16.971 ± 2.987 | 31.04 | 40.110 | 308.497 | 408.795 | fully comparable activity | fully comparable activity | particularly significant |
| CC(=O)OCC1OC(c2ccco2)OC(C(COC(C)=O)OC(C)=O)C1OC(C)=O (stereo not drawn) [Tetracetyl sorbityl furfural, tetracetyl sorbityl furfural] | 0.35 | 89.06 | 5.75 | 71.78 | 0.28 | 91.18 | 0.12 | 99.39 | – | 11.158 ± 5.679 | 797.50 | 171.083 | 330.960 | 428.775 | fully comparable activity | higher than the selected reference ARGB11 | – |
| COc1cc(C2OC(CO)C(O)C(C(O)CO)O2)ccc1O (stereo not drawn) [Sorbityl vanillinal, sorbityl vanillinal] | 0.04 | 98.64 | 0.09 | 99.57 | 0.15 | 95.44 | 0.21 | 98.95 | remarkable | 4.408 ± 2.683 | 70.29 | 115.422 | 3544.098 | 3261.945 | higher activity than the selected reference ARGB11 | higher than the selected reference ARGB11 | – |
| O=C(OCC1OC(c2ccco2)OC(C(COC(=O)c2ccccc2)OC(=O)c2ccccc2)C1OC(=O)c1ccccc1)c1ccccc1 (stereo not drawn) [Tetrabenzoyl sorbityl furfural, tetrabenzoyl sorbityl furfural] | 0.63 | 80.28 | 2.51 | 87.69 | 0.45 | 85.81 | 0.28 | 98.63 | – | 22.864 ± 7.892 | 37.65 | 41.485 | 300.856 | 211.479 | fully comparable activity | fully comparable activity | – |
